“Also recorded” adds a separate entry of the source.
Key:
rabbit eye model [1] = experiment: Pupillometry: effect of single topical ocular administration on pupillary diameter (miotic effect) in rabbit eye model; assay type: in vivo, Dutch Belted Rabbits
Experimental: The following examples were performed to determine which active pharmaceutical agent (API), alone or in combination, could effect upon topical administration an approximate 1-2 mm decrease in pupillary diameter with a desirable (e.g., about 4 h) duration of action. Unless stated otherwise, a rabbit animal model was used for the studies. Phentolamine was used as a positive control (comparator API) and caused an approximately 1 mm decrease in the pupil at 0.5% and 1% with a duration of more than 6 hours.
Study design: 3 Dutch Belted Rabbits (pigmented breed)/group received a single ocular administration of test articles (one drop per eye) at 3 concentrations (tested one week apart). After a 2-week rest period, combinations were tested. Ocular irritation was assessed using a modified Draize test. Intraocular pressure (IOP) was measured at baseline, 1 h, 4 h, 6 h and 24 hours. Pupillary Diameter was measured at baseline, 15 min, 1 h, 4 h and 6 h after dosing. Due to the variation in pupillary diameter and IOP between rabbits and between eyes within rabbits, the data for pupillary diameter and IOP were normalized and presented with error bars (SD). A change of 15% to 20% approximates a pupillary diameter change of 1 mm. […]

rabbit eye model [2] = experiment: Effect of benzalkonium chloride on the miotic effect of carbachol; assay type: in vivo
Description: In still further experiments, the inventors investigated the effect of benzalkonium chloride on the miotic effect of carbachol. To that end, different concentrations of BAC were employed between 0.005% and 0.02% at carbachol concentrations between 0.025% and 0.075%, and the results are shown in FIGS. 6A-6C. […] As BAK is believed to increase permeability of the respective agents across the corneal tissue, addition of BAK at concentrations up to 0.05% may advantageously increase miotic effect at otherwise identical drug concentration. Thus, BAK may enhance the miotic action of brimonidine, rivastigmine, galantamine, and carbachol, which may in turn allow for reduced drug concentrations and/or increased miotic effect without unduly extending the duration of the miotic effect.

## Brc1c(N=C2NCCN2)ccc2nccnc12.O=C(O)C(O)C(O)C(=O)O [Brimonidine, 5-Bromo-6-(2-imidazolidinylideneamino) quinoxaline L-tartrate]
Rabbit eye model [1]; at doses tested, rabbit
  miotic effect on pupillary diameter: little to no effect
Rabbit eye model [1]; doses at or below 0.1%, rabbit (FIG. 2), L-tartrate
  miotic effect on pupillary diameter: some miotic effect; also recorded: moderate effect
Rabbit eye model [1]; higher doses tested, at or above 0.2%, rabbit (FIG. 2)
  miotic effect on pupillary diameter: little to no effect

## Br.COc1ccc2c3c1O[C@H]1C[C@@H](O)C=C[C@@]31CCN(C)C2 [Galantamine, galantamine]
Rabbit eye model [1]; concentration of about 2%, alone, rabbit
  decrease in pupil: 1-2 mm
Rabbit eye model [1]; high dose (2%), rabbit (FIG. 4A)
  duration of reduction in pupillary diameter (lasted at least): at least 1 h

## Cc1ccc(N(CC2=NCCN2)c2cccc(O)c2)cc1 [Phentolamine]
Rabbit eye model [1]; all doses, topical, rabbit (FIG. 1)
  duration of reduction in pupillary diameter: at least 6 h
Rabbit eye model [1]; at 0.5% and 1%, topical, one drop per eye, rabbit
  decrease in the pupil: approximately 1 mm

## CCN(C)C(=O)Oc1cccc(C(C)N(C)C)c1 (stereo not drawn) [Rivastigmine, N-ethyl-3-[1-dimethylamino)ethyl]-N-methylphenyl carbamate]
Rabbit eye model [1]; concentration of about 1%, alone, rabbit
  decrease in pupil: 1 mm
Rabbit eye model [1]; concentration of about 1%, alone, rabbit (FIG. 3A)
  miotic effect on pupillary diameter (comparison in words): substantially similar to phentolamine

## C[N+](C)(C)CCOC(N)=O [carbachol]
Rabbit eye model [1]; carbachol, even at lowest dose (about 0.075%), rabbit
  duration of action (miotic effect): 2 to 4 h
Rabbit eye model [1]; even at the lowest dose / low concentration of about 0.075%, rabbit (FIG. 5)
  miotic effect (potency in words): very potent

## N-Alkyl-N-benzyl-N,N-dimethyl-ammonium chloride [BAC]
Rabbit eye model [2]; BAC 0.005%, at 1 hr, higher carbachol concentration (FIG. 6A)
  effect of BAC on miotic effect of carbachol: some effect
Rabbit eye model [2]; BAC 0.005%, carbachol 0.025%-0.075% (FIG. 6A)
  effect of BAC on miotic effect of carbachol: minimal effect
Rabbit eye model [2]; BAC 0.01%, carbachol 0.025%-0.075% (FIG. 6B)
  effect of BAC on miotic effect of carbachol: somewhat more pronounced
Rabbit eye model [2]; BAC at least 0.02%, carbachol 0.025%-0.075% (FIG. 6C)
  effect of BAC on miotic effect of carbachol: significant
